# Experimental data from patent US20230405075A1, “PR[…] EXTRACT OR ITS ISOLATED ALKALOIDS AND CANNABIS EXTRACT OR ITS ISOLATED CANNABINOIDS, AND COSMETIC AND/OR PHARMACEUTICAL USE THEREOF” (HERBA INVEST, PTE. LTD., priority 2020, published 2023).
# Assay: Franz cell diffusion assay, transcutaneous permeation
# Assay type: in vitro ADME, porcine
# Settings: in the presence of the combined extracts
# Experimental: The transcutaneous permeation of w/o creams according to Examples 2 and 3 were evaluated by using the Franz cell diffusion assay and compared with the permeation of w/o creams containing Mitragyna alkaloids only and Cannabis cannabinoids only, according to examples 4 and 5.
# As known, Franz cell diffusion assay is the most common and reliable method to evaluate the transcutaneous permeation of molecules. Such an assay is well known in the art and a detailed description is not necessary.
# The assay conditions were as follows: • cells used: 0.9 and 1.4 mm diameter. • membrane: porcine ear skin, 1 mm thickness. • temperature of incubation: 32° C.
# The results of the evaluations are shown in FIG. 1, where the different bars relate to: • a cream according to Example 4, with 1% Mitragyna alkaloids; • a cream according to Example 5, with 1% cannabinoids; • a cream according to Example 2, containing 0.5% purified Mitragyna alkaloids and 0.5% cannabinoids; • a cream with enhancer according to Example 3, also containing 0.5% purified Mitragyna alkaloids and 0.5% cannabinoids, • respectively.
# The particular w/o cream according to Example 2 used in the evaluation of transcutaneous permeation had the following composition (percentages in weight): • Diisostearoyl Polyglyceryl-3 Dimer Dilinoleate: 3% • Synthetic Beeswax: 0.2% • Hydrogenated Castor Oil: 0.3% • Paraffinum liquidum: 7% • Isopropyl Myristate: 7% • Hydrogenated polyisobutene: 7.5% • Aqua (water): 60% • Magnesium sulphate heptahydrate: 1% • Mitragyna purified extract (or isolated alkaloids) alcoholic solution: the amount/concentration resulting in a 0.5% alkaloid concentration of in the final formulation; • Cannabis purified extract (or isolated cannabinoids) alcoholic solution: the amount/concentration resulting in a 0.5% […] concentration in the final formulation.
row,SMILES,concentration detected in Franz cell receptor (order of selective passage)
1,C=C(C)[C@@H]1CCC(C)=C[C@H]1c1c(O)cc(CCCCC)cc1O [cannabidiol],increase in concentration
2,C=C[C@H]1CN2CCc3c([nH]c4cccc(OC)c34)[C@@H]2C[C@@H]1/C(=C\OC)C(=O)OC [paynantheine],in lower percentage
3,C=C[C@H]1CN2CCc3c([nH]c4cccc(OC)c34)[C@H]2C[C@@H]1/C(=C\OC)C(=O)OC [isopaynantheine],highest concentrations detected
4,CC[C@@H]1CN2CCc3c([nH]c4cccc(OC)c34)[C@H]2C[C@@H]1/C(=C\OC)C(=O)OC [speciociliatine],highest concentrations detected
5,CC[C@@H]1CN2CCc3c([nH]c4cccc(OC)c34)[C@@H]2C[C@@H]1/C(=C\OC)C(=O)OC [mitragynine],in lower percentage
